Test results taken from PMC12392461, “Beyond Estrogenicity: A Comparative Assessment of Bisphenol A and Its Alternatives in In Vitro Assays Questions Safety of Replacements” (Environmental Science & Technology, 2025).
Read-outs that look alike come from different tables or passages of the source.

Tests used:
[1] = test system: PPARγ; set-up: method as in Crosthwait et al. 2025; Sun et al. 2025; details: ref Crosthwait et al. 2025; Sun et al. 2025; cited from earlier work
[2] = test system: HEK293H, HEK293T, H4IIe, MCF7 and SH-SY5Y cells; details: for cytotoxicity,median REPBPA,IC10: median IC10 relative to BPA; for IC10,Median (M): median cytotoxicity of all cell lines; for IC10, median: median cytotoxicity over all cell lines
Protocol: Cell culture conditions and bioassay protocols including response detection are provided in Text S2.1–2.4 and Table S3. − Cell viability was determined from cell confluency using an IncuCyte S3 Live-Cell Analysis System (Sartorius AG, Essen, Germany) before and after exposure, except for SH-SY5Y cells (live–dead staining with Nuclear Green LcS1 and propidium iodide, Abcam, UK). For metabolic activation experiments, cell viability was assessed using the ToxBLAzer DualScreen Kit (Thermo Fisher Scientific) to capture the remaining toxicity in ERα-UAS-bla GripTite after treatment with the aCYP catalyst (details in Text S2.4).
For ARE, the concentration that triggered an induction ratio of 1.5 (ECIR1.5) was used as the benchmark value, as detailed in Text S2.5. IC10 values also served as a threshold for data analysis in all assays; only concentrations below IC10 were considered when deriving EC10 or ECIR1.5.
TR indicates whether the cytotoxicity is triggered by specific toxicity mechanisms (TR ≥ 10) or not (0.1< TR< 10). 3 TR=IC10,baseline/IC10 We measured the cytotoxicity of BPA and its alternatives in HEK293H (PPARγ), HEK293T (ERα), H4IIe (AhR CALUX), MCF7 (ARE/MMP), and differentiated SH-SY5Y cells (Table S6). […]
medium, supplemented with 2% B-27 Supplement and 2 mM GlutaMAX Supplement. SH - SY5Y cells were differentiated with 10 µM all-trans retinoic acid prior to the assay.
S2.2: Cell Seeding and Incubation. For all bioassays, cell suspensions in the respective assay medium were dispensed into each well of 384-well plates using a MultiFlo Dispenser (Biotek, (now Agilent), Winooski, VT, U.S.). After seeding, the plates were incubated at 37° C and 5% CO₂ for […]. The final cell densities and plate types were as follows: Black poly-D-lysine […]
6500 cells/well, ERα: 5000 cells/well. White 384-well plates with a clear bottom (Product No.
NYC, U.S.) for AhR: 3250 cells/well. Black Collagen I coated plates were used (Product No.
S2.3: Chemical Dosing and Assay Analysis Procedures. The dosing procedure and high-throughput assay workflow have been described in detail before. 9 The dosing concentrations […]
Stock solutions were then either added directly to the respective cell culture medium or evaporated under nitrogen, followed by replenishment with fresh medium. The final solvent content in each well was kept below 1% for methanol, 0% for acetonitrile.
Dosing plates were prepared as 11 -step serial dilutions using a Hamilton Microlab Star robotic system (Hamilton, Bonaduz, Switzerland), and chemicals were dosed in duplicates by transferring 10 μL twice from the dosing plates to the cell plates . After quantifying cell confluency as described in S2. 4., the exposed cells were incubated at 37° C and 5% CO₂ for an additional 24 h. All chemicals were tested in all assays with at least three independent […]
S2.4: Cell Viability Measurement s and bioanalytical protocols . The confluency as a measure of cell viability was determined with an IncuCyte S3 Live -Cell Analysis System (Sartorius AG, Essen, Germany). With this method the confluency of cells in a microscopy image are normalized to control wells without cells and compared before and after 24 hours of exposure.
This method has been described previously 13. Cell viability of SH-SY5Y cells was measured […]
propidium iodide (PI, Abcam, Cambridge, U.K.).14 Nuclear Green LCS1 is a membrane-permeable dye that stains the nuclei of all cells, whereas PI only enters cells with compromised membrane integrity (non-viable cells). After staining, live cells show green nuclei without red fluorescence, while dead cells display both green and red nuclear fluorescence due to PI […]
intercalation. Cell viability was calculated as the proportion of green-only nuclei relative to the […]
For experiments with the preceding aCYP activation, ERα cell viability was additionally calculated from the readout of the ToxBLAzer reagent. The ToxBLAzer assay was conducted following the manufacturer's instructions (Thermo Fisher, Waltham, MA, U.S.).13 Fluorescence

[3] = test system: Tox21 assays; details: cited from earlier work
[4] = test system: ERα; details: cited from earlier work
[5] = test system: ERα; assay: Literature ERα reporter gene assays (comparison); format: cell-based; details: for EC10, approx.: in M (unit assumed)
Protocol: S5.4: Comparison with literature data for ERα reporter gene assays
To improve data comparability with our own results we converted reported EC₅₀ to EC₁₀ by dividing by 9, which is the ratio for log-logistic concentration-response curves with a hillslope of 1 (Figure S9a). Additionally, REPBPA values were calculated to enable a more consistent evaluation. Methodological differences between studies must be considered, as Reiniger et al.24 used the YES assay, while Goksøyr et al.25 applied ERα from fish (Figure S9b).
Cyan symbols highlight the ER-UAS-bla GripTite (this study and Tox21GenBLA).
(1 picture or pasted object on this page, not shown here)

[6] = 15 min
[7] = test system: Tox21 assays; assay: Re-evaluated Tox21 data (Adamovsky et al.), REPBPA and SRbaseline; details: for SRbaseline: Specificity Ratio;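 on all read-outs here: published Tox21 results reanalysed with a revised model predicting baseline toxicity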
Excerpt: We also reanalyzed the Tox21 data of Adamovsky et al. with the updated baseline toxicity prediction model (Table S2).

[8] = TOX21_AR_LUC_MDAKB2_Antagonist_0,5nM_R1881, re-evaluated Tox21 data, ref Adamovsky et al 2024
[9] = TOX21_CAR_Agonist, re-evaluated Tox21 data, ref Adamovsky et al 2024
[10] = TOX21_CAR_Antagonist, re-evaluated Tox21 data, ref Adamovsky et al 2024
[11] = TOX21_PPARg_BLA_antagonist_ratio, re-evaluated Tox21 data, ref Adamovsky et al 2024
[12] = Tox21BLA, ref Adamovsky et al. 2024
[13] = Tox21Luc, ref Adamovsky et al. 2024
[14] = approximated from literature EC50, ref Reiniger et Oehlmann 2024
[15] = approximated from literature values, ref Kojima et al 2019
[16] = relative estrogenic potency vs BPA, ref Kojima et al 2019
[17] = TOX21_AR_LUC_MDAKB2_Antagonist_0,5nM_R1881, Relative Effect Potency
[18] = TOX21_AR_LUC_MDAKB2_Antagonist_0,5nM_R1881
[19] = TOX21_CAR_Agonist, Relative Effect Potency
[20] = TOX21_PPARg_BLA_antagonist_ratio

Structure (SMILES): O=S(=O)(c1ccc(O)cc1)c1ccccc1O [2,4-BPS, 2,4'-Dihydroxydiphenyl sulfone]
- PPARγ transactivation reported in the literature [1]: No agonism was detected

Structure (SMILES): Oc1ccc(C(c2ccc(O)cc2)(C(F)(F)F)C(F)(F)F)cc1 [BPAF, 4,4'-(1,1,1,3,3,3-Hexafluoropropane-2,2-diyl)diphenol]
- cytotoxicity,median REPBPA,IC10 [2]: 3.07
- IC10,Median (M) [2]: 2.28 × 10^–5 M
- IC10, median [2]: 22.8 µM
- EC10 [3, 8]: 2.92e-06 M
- EC10 [3, 9]: 5.35e-06 M
- EC10 [3, 10]: 4.23e-07 M
- EC10 [3, 11]: 5.75e-06 M
- EC10 [3, 12]: 2.07E-07
- EC10 [3, 13]: 1.10E-08
- EC50 ([4]; estrogen receptor from Atlantic cod (Gadus morhua), ref Goksøyr et al 2024): 0.23 µM
- EC50 ([4]; ref Kojima et al 2019): 0.39 µM
- EC50 ([4]; ref Pelch et al 2019): 0.13 µM
- Efficacy % ([4]; ref Pelch et al 2019): 91.50%
- EC50 ([4]; ref Reiniger et Oehlmann 2024): 0.434 µM
- Efficacy % ([4]; ref Reiniger et Oehlmann 2024): 8.21E+01%
- REPBPA,ERα reported in the literature ([4]; ref Text S5.4, Tables S2 and S7): 3–5
- EC10, approx. ([5]; Atlantic cod estrogen receptor, approximated from literature EC50, ref Goksøyr et al 2024): ~2.56E-08
- REPBPA ([5]; Atlantic cod estrogen receptor, ref Goksøyr et al 2024): 8.26E+00
- EC10, approx. ([5]; approximated from literature EC50, ref Pelch et al 2019): ~1.44E-08
- EC10, approx. [5, 14]: ~4.82E-08
- EC10, approx. [5, 15]: ~4.30E-08
- REPBPA [5, 16]: 8.49E-01
- REPBPA ([5]; relative estrogenic potency vs BPA, ref Pelch et al 2019): 9.23E+00
- REPBPA ([5]; relative estrogenic potency vs BPA, ref Reiniger et Oehlmann 2024): 5.21E+00
- % Loss [6]: -9%
- PPARγ transactivation reported in the literature [1]: No agonism was detected
- REPBPA [7, 17]: 0.83
- SRbaseline [7, 18]: 22.15
- REPBPA [7, 19]: 0.26
- SRbaseline ([7]; TOX21_CAR_Agonist): 12.10
- REPBPA ([7]; TOX21_CAR_Antagonist, Relative Effect Potency): 1.29
- SRbaseline ([7]; TOX21_CAR_Antagonist): 153.1
- SRbaseline [7, 20]: 11.28
- REPBPA [7, 12]: 2.86E+00
- REPBPA [7, 13]: 1.23E+00

Structure (SMILES): CC(c1ccccc1)(c1ccc(O)cc1)c1ccc(O)cc1 [BPAP, 4,4'-(1-Phenylethylidene)bisphenol]
- cytotoxicity,median REPBPA,IC10 [2]: 2.12
- IC10,Median (M) [2]: 3.31 × 10^–5 M
- IC10, median [2]: 33.1 µM
- EC10 [3, 10]: 1.11e-06 M
- EC50 ([4]; ref Kojima et al 2019): 1.9 µM
- Efficacy % ([4]; ref Pelch et al 2019): 45.40%
- EC50 ([4]; ref Reiniger et Oehlmann 2024): 0.932 µM
- Efficacy % ([4]; ref Reiniger et Oehlmann 2024): 1.06E+02%
- EC10, approx. [5, 14]: ~1.04E-07
- EC10, approx. [5, 15]: ~1.45E-07
- REPBPA [5, 16]: 2.52E-01
- reduction of C parent after aCYP oxidation [6]: 25%
- REPBPA ([7]; ATG_NRF2_ARE_CIS_up, Relative Effect Potency): 3.88
- SRbaseline ([7]; ATG_NRF2_ARE_CIS_up): 15.59
- SRbaseline ([7]; TOX21_CAR_Antagonist): 27.45

Structure (SMILES): CC(c1ccc(O)cc1)c1ccc(O)cc1 [BPE, 4,4′-Ethylidenbisphenol]
- cytotoxicity,median REPBPA,IC10 [2]: 0.88
- IC10,Median (M) [2]: 7.91 × 10^–5 M
- IC10, median [2]: 79.1 µM
- EC10 [3, 8]: 1.63e-06 M
- EC10 [3, 9]: 1.04e-05 M
- EC10 [3, 11]: 1.02e-05 M
- EC10 [3, 12]: 1.36E-06
- EC10 [3, 13]: 3.57E-08
- % Loss [6]: 21%
- REPBPA [7, 17]: 1.49
- SRbaseline [7, 18]: 76.62
- REPBPA [7, 19]: 0.13
- SRbaseline ([7]; TOX21_CAR_Agonist): 11.95
- SRbaseline [7, 20]: 12.24
- REPBPA [7, 12]: 4.35E-01
- REPBPA [7, 13]: 6.37E-01

Structure (SMILES): C=CCOc1ccc(S(=O)(=O)c2ccc(O)cc2)cc1 [BPS-MAE, 4-[[4-(Allyloxy)phenyl]sulfonyl]phenol]
- cytotoxicity,median REPBPA,IC10 [2]: 0.37
- IC10,Median (M) [2]: 1.90 × 10^–4 M
- IC10, median [2]: 190 µM
- Efficacy % ([4]; ref Pelch et al 2019): 10.30%
- PPARγ transactivation reported in the literature [1]: weaker effects

Structure (SMILES): O=S(=O)(c1ccc(O)cc1)c1ccc(OCc2ccccc2)cc1 [BPS-MPE, 4-[4-(benzyloxy)benzenesulfonyl]phenol]
- cytotoxicity,median REPBPA,IC10 [2]: 0.62
- IC10,Median (M) [2]: 1.12 × 10^–4 M
- IC10, median [2]: 112 µM
- Efficacy % ([4]; ref Pelch et al 2019): 9.40%
- PPARγ transactivation reported in the literature [1]: significant PPARγ activation

Structure (SMILES): Cc1ccc(S(=O)(=O)NC(=O)Nc2ccc(Cc3ccc(NC(=O)NS(=O)(=O)c4ccc(C)cc4)cc3)cc2)cc1 [BTUM, 4,4'-Bis(p-tolylsulfonylureido)diphenylmethane]
- cytotoxicity,median REPBPA,IC10 [2]: 2.26
- IC10,Median (M) [2]: 3.10 × 10^–5 M
- IC10, median [2]: 31 µM
- PPARγ transactivation reported in the literature [1]: weaker effects

Structure (SMILES): CC(C)Oc1ccc(S(=O)(=O)c2ccc(O)cc2)cc1 [D8, 4-((4-Isopropoxyphenyl)sulfonyl)phenol]
- cytotoxicity,median REPBPA,IC10 [2]: 0.21
- Efficacy % ([4]; ref Pelch et al 2019): 10.30%
- PPARγ transactivation reported in the literature [1]: weaker effects

Structure (SMILES): Cc1ccc(S(=O)(=O)NC(=O)Nc2cccc(OS(=O)(=O)c3ccc(C)cc3)c2)cc1 [Pergafast, N-(p-toluenesulfonyl)-N'-(3-(p-toluenesulfonyloxy)phenyl)urea]
- cytotoxicity,median REPBPA,IC10 [2]: 3.67
- IC10,Median (M) [2]: 1.91 × 10^–5 M
- IC10, median [2]: 19.1 µM
- PPARγ transactivation reported in the literature [1]: weaker effects
